{
  "source": "paper PMC10331583",
  "about": "“Control of fibrosis with enhanced safety via asymmetric inhibition of prolyl‐tRNA synthetase 1” (EMBO Molecular Medicine, 2023)",
  "key": {"WI‐26 VA4 cells [1]": {"test_system": "WI‐26 VA4 cells", "test": "Collagen ELISA (secreted pro‐collagen I)"}, "[2]": {"test": "CellTiter‐Glo assay (cytotoxicity)", "conditions": "human, WI-26 VA4 cells"}, "WI‐26 VA4 cells [3]": {"test_system": "WI‐26 VA4 cells", "test": "CellTiter‐Glo assay (cytotoxicity)"}, "[4]": {"conditions": "log(inhibitor) vs. response, variable slope (four parameters), concentration in nM"}},
  "note": "Where two headings read alike, the source gives them in different places.",
  "data": [
    {"smiles": "O[C@H]1CCCN[C@@H]1CCCn1cnc2c(Cl)c(Cl)ccc21", "note": "[DWN12088]", "values": [
      {"measurement": "activity at 0.3 µM", "setting": "WI‐26 VA4 cells [1]; Homo sapiens, WI26VA4, read-out: Collagen, % of control, average, 300 nM, average", "value": 96.4, "unit": "%"},
      {"measurement": "activity at 1 µM", "setting": "WI‐26 VA4 cells [1]; Homo sapiens, WI26VA4, read-out: Collagen, % of control, average, 1000 nM, average", "value": 78.8, "unit": "%"},
      {"measurement": "activity at 3 µM", "setting": "WI‐26 VA4 cells [1]; Homo sapiens, WI26VA4, read-out: Collagen, % of control, average, 3000 nM, average", "value": 37.7, "unit": "%"},
      {"measurement": "activity at 10 µM", "setting": "WI‐26 VA4 cells [1]; Homo sapiens, WI26VA4, read-out: Collagen, % of control, average, 10000 nM, average", "value": 15, "unit": "%"},
      {"measurement": "activity at 30 µM", "setting": "WI‐26 VA4 cells [1]; Homo sapiens, WI26VA4, read-out: Collagen, % of control, average, 30000 nM, average", "value": 5.52, "unit": "%"},
      {"measurement": "activity at 100 µM", "setting": "WI‐26 VA4 cells [1]; Homo sapiens, WI26VA4, read-out: Collagen, % of control, average, 100000 nM, average", "value": 4.05, "unit": "%"},
      {"measurement": "activity at 300 µM", "setting": "WI‐26 VA4 cells [1]; Homo sapiens, WI26VA4, read-out: Collagen, % of control, average, 300000 nM, average", "value": 4.51, "unit": "%"},
      {"measurement": "activity at 0.03 µM", "setting": "WI‐26 VA4 cells [1]; Homo sapiens, WI26VA4, read-out: Efficacy, % of control, average, 30 nM", "value": 102, "unit": "%"},
      {"measurement": "activity at 0.1 µM", "setting": "WI‐26 VA4 cells [1]; Homo sapiens, WI26VA4, read-out: Efficacy, % of control, average, 100 nM", "value": 99.4, "unit": "%"},
      {"measurement": "activity at 0.3 µM", "setting": "WI‐26 VA4 cells [1]; Homo sapiens, WI26VA4, read-out: Efficacy, % of control, average, 300 nM", "value": 107, "unit": "%"},
      {"measurement": "activity at 1 µM", "setting": "WI‐26 VA4 cells [1]; Homo sapiens, WI26VA4, read-out: Efficacy, % of control, average, 1000 nM", "value": 82.3, "unit": "%"},
      {"measurement": "activity at 3 µM", "setting": "WI‐26 VA4 cells [1]; Homo sapiens, WI26VA4, read-out: Efficacy, % of control, average, 3000 nM", "value": 35.4, "unit": "%"},
      {"measurement": "activity at 10 µM", "setting": "WI‐26 VA4 cells [1]; Homo sapiens, WI26VA4, read-out: Efficacy, % of control, average, 10000 nM", "value": 11.9, "unit": "%"},
      {"measurement": "activity at 30 µM", "setting": "WI‐26 VA4 cells [1]; Homo sapiens, WI26VA4, read-out: Efficacy, % of control, average, 30000 nM", "value": 3.71, "unit": "%"},
      {"measurement": "activity at 100 µM", "setting": "WI‐26 VA4 cells [1]; Homo sapiens, WI26VA4, read-out: Efficacy, % of control, average, 100000 nM", "value": 2.52, "unit": "%"},
      {"measurement": "activity at 0.03 µM", "setting": "WI‐26 VA4 cells [1]; Homo sapiens, WI26VA4, read-out: Efficacy, % of control, single replicate, 30 nM", "value": 113, "unit": "%"},
      {"measurement": "activity at 0.1 µM", "setting": "WI‐26 VA4 cells [1]; Homo sapiens, WI26VA4, read-out: Efficacy, % of control, single replicate, 100 nM", "value": 108, "unit": "%"},
      {"measurement": "activity at 0.3 µM", "setting": "WI‐26 VA4 cells [1]; Homo sapiens, WI26VA4, read-out: Efficacy, % of control, single replicate, 300 nM", "value": 114, "unit": "%"},
      {"measurement": "activity at 3 µM", "setting": "WI‐26 VA4 cells [1]; Homo sapiens, WI26VA4, read-out: Efficacy, % of control, single replicate, 3000 nM", "value": 39, "unit": "%"},
      {"measurement": "activity at 10 µM", "setting": "WI‐26 VA4 cells [1]; Homo sapiens, WI26VA4, read-out: Efficacy, % of control, single replicate, 10000 nM", "value": 10.1, "unit": "%"},
      {"measurement": "activity at 30 µM", "setting": "WI‐26 VA4 cells [1]; Homo sapiens, WI26VA4, read-out: Efficacy, % of control, single replicate, 30000 nM", "value": 3.03, "unit": "%"},
      {"measurement": "IC50", "setting": "WI‐26 VA4 cells [1]; Homo sapiens, WI26VA4, read-out: IC50 for collagen level", "value": 2, "unit": "µM"},
      {"measurement": "Collagen HillSlope (best-fit value)", "setting": "WI‐26 VA4 cells [1]; log(inhibitor) vs. response, variable slope (four parameters)", "value": -1.329},
      {"measurement": "Collagen LogIC50 (best-fit value)", "setting": "WI‐26 VA4 cells [1]; [4]", "value": 3.306},
      {"measurement": "Relative (CC50)/(collagen IC50)", "setting": "WI‐26 VA4 cells [1]; relative to HF, Fig 5E", "value": 3.01},
      {"measurement": "CC50 at 72 h", "setting": "[2]; CC50 (CellTiter-Glo), 72 h (Fig 5B)", "value": 20.3, "unit": "µM"},
      {"measurement": "CC50 at 72 h", "setting": "[2]; CC50, 72 h (Fig 1B)", "value": 20.8, "unit": "µM"},
      {"measurement": "CC50 fold versus HF", "setting": "WI‐26 VA4 cells [3]; Fig 1B", "value": "~ 397 fold"},
      {"measurement": "activity at 0.01 µM", "setting": "WI‐26 VA4 cells [3]; Homo sapiens, WI26VA4, read-out: CellTiter-Glo % of control, 10 nM, Experiment #1, replicates", "value": 107, "unit": "%"},
      {"measurement": "activity at 0.01 µM", "setting": "WI‐26 VA4 cells [3]; Homo sapiens, WI26VA4, read-out: CellTiter-Glo % of control, 10 nM, Experiment #2, replicates", "value": 105, "unit": "%"},
      {"measurement": "activity at 0.03 µM", "setting": "WI‐26 VA4 cells [3]; Homo sapiens, WI26VA4, read-out: CellTiter-Glo % of control, 30 nM, Experiment #1, replicates", "value": 95.8, "unit": "%"},
      {"measurement": "activity at 0.03 µM", "setting": "WI‐26 VA4 cells [3]; Homo sapiens, WI26VA4, read-out: CellTiter-Glo % of control, 30 nM, Experiment #2, replicates", "value": 108, "unit": "%"},
      {"measurement": "activity at 0.1 µM", "setting": "WI‐26 VA4 cells [3]; Homo sapiens, WI26VA4, read-out: CellTiter-Glo % of control, 100 nM, Experiment #1, replicates", "value": 107, "unit": "%"},
      {"measurement": "activity at 0.1 µM", "setting": "WI‐26 VA4 cells [3]; Homo sapiens, WI26VA4, read-out: CellTiter-Glo % of control, 100 nM, Experiment #2, replicates", "value": 107, "unit": "%"},
      {"measurement": "activity at 0.3 µM", "setting": "WI‐26 VA4 cells [3]; Homo sapiens, WI26VA4, read-out: CellTiter-Glo % of control, 300 nM, Experiment #1, replicates", "value": 109, "unit": "%"},
      {"measurement": "activity at 0.3 µM", "setting": "WI‐26 VA4 cells [3]; Homo sapiens, WI26VA4, read-out: CellTiter-Glo % of control, 300 nM, Experiment #2, replicates", "value": 102, "unit": "%"},
      {"measurement": "activity at 1 µM", "setting": "WI‐26 VA4 cells [3]; Homo sapiens, WI26VA4, read-out: CellTiter-Glo % of control, 1000 nM, Experiment #1, replicates", "value": 106, "unit": "%"},
      {"measurement": "activity at 1 µM", "setting": "WI‐26 VA4 cells [3]; Homo sapiens, WI26VA4, read-out: CellTiter-Glo % of control, 1000 nM, Experiment #2, replicates", "value": 105, "unit": "%"},
      {"measurement": "activity at 3 µM", "setting": "WI‐26 VA4 cells [3]; Homo sapiens, WI26VA4, read-out: CellTiter-Glo % of control, 3000 nM, Experiment #1, replicates", "value": 88.2, "unit": "%"},
      {"measurement": "activity at 3 µM", "setting": "WI‐26 VA4 cells [3]; Homo sapiens, WI26VA4, read-out: CellTiter-Glo % of control, 3000 nM, Experiment #2, replicates", "value": 90.3, "unit": "%"},
      {"measurement": "activity at 10 µM", "setting": "WI‐26 VA4 cells [3]; Homo sapiens, WI26VA4, read-out: CellTiter-Glo % of control, 10000 nM, Experiment #1, replicates", "value": 71.7, "unit": "%"},
      {"measurement": "activity at 10 µM", "setting": "WI‐26 VA4 cells [3]; Homo sapiens, WI26VA4, read-out: CellTiter-Glo % of control, 10000 nM, Experiment #2, replicates", "value": 92, "unit": "%"},
      {"measurement": "activity at 30 µM", "setting": "WI‐26 VA4 cells [3]; Homo sapiens, WI26VA4, read-out: CellTiter-Glo % of control, 30000 nM, Experiment #1, replicates", "value": 34.8, "unit": "%"},
      {"measurement": "activity at 30 µM", "setting": "WI‐26 VA4 cells [3]; Homo sapiens, WI26VA4, read-out: CellTiter-Glo % of control, 30000 nM, Experiment #2, replicates", "value": 38.4, "unit": "%"},
      {"measurement": "activity at 100 µM", "setting": "WI‐26 VA4 cells [3]; Homo sapiens, WI26VA4, read-out: CellTiter-Glo % of control, 100000 nM, Experiment #1, replicates", "value": 26.4, "unit": "%"},
      {"measurement": "activity at 100 µM", "setting": "WI‐26 VA4 cells [3]; Homo sapiens, WI26VA4, read-out: CellTiter-Glo % of control, 100000 nM, Experiment #2, replicates", "value": 20.9, "unit": "%"},
      {"measurement": "activity at 0.01 µM", "setting": "WI‐26 VA4 cells [3]; Homo sapiens, WI26VA4, read-out: CellTiter-Glo % of control, average, 10 nM, average", "value": 104, "unit": "%"},
      {"measurement": "activity at 0.03 µM", "setting": "WI‐26 VA4 cells [3]; Homo sapiens, WI26VA4, read-out: CellTiter-Glo % of control, average, 30 nM, average", "value": 104, "unit": "%"},
      {"measurement": "activity at 0.1 µM", "setting": "WI‐26 VA4 cells [3]; Homo sapiens, WI26VA4, read-out: CellTiter-Glo % of control, average, 100 nM, average", "value": 109, "unit": "%"},
      {"measurement": "activity at 0.3 µM", "setting": "WI‐26 VA4 cells [3]; Homo sapiens, WI26VA4, read-out: CellTiter-Glo % of control, average, 300 nM, average", "value": 108, "unit": "%"},
      {"measurement": "activity at 1 µM", "setting": "WI‐26 VA4 cells [3]; Homo sapiens, WI26VA4, read-out: CellTiter-Glo % of control, average, 1000 nM, average", "value": 102, "unit": "%"},
      {"measurement": "activity at 3 µM", "setting": "WI‐26 VA4 cells [3]; Homo sapiens, WI26VA4, read-out: CellTiter-Glo % of control, average, 3000 nM, average", "value": 84.7, "unit": "%"},
      {"measurement": "activity at 10 µM", "setting": "WI‐26 VA4 cells [3]; Homo sapiens, WI26VA4, read-out: CellTiter-Glo % of control, average, 10000 nM, average", "value": 77.5, "unit": "%"},
      {"measurement": "activity at 30 µM", "setting": "WI‐26 VA4 cells [3]; Homo sapiens, WI26VA4, read-out: CellTiter-Glo % of control, average, 30000 nM, average", "value": 34.6, "unit": "%"},
      {"measurement": "activity at 100 µM", "setting": "WI‐26 VA4 cells [3]; Homo sapiens, WI26VA4, read-out: CellTiter-Glo % of control, average, 100000 nM, average", "value": 22.4, "unit": "%"},
      {"measurement": "activity at 300 µM", "setting": "WI‐26 VA4 cells [3]; Homo sapiens, WI26VA4, read-out: CellTiter-Glo % of control, average, 300000 nM, average", "value": 1.88, "unit": "%"},
      {"measurement": "activity at 1000 µM", "setting": "WI‐26 VA4 cells [3]; Homo sapiens, WI26VA4, read-out: CellTiter-Glo % of control, average, 1000000 nM, average", "value": 0.11, "unit": "%"},
      {"measurement": "CellTiter-Glo LogIC50 (best-fit value)", "setting": "WI‐26 VA4 cells [3]; [4]", "value": 4.308}
    ]}
  ]
}
